pKd: −log10 of the molar value. Read-outs that look alike come from different tables or passages of the source.
Experiments:
YiiP [1] = biological target: T1, YiiP (Escherichia coli, UniProt P69380); details: cited from earlier work
YiiP [2] = biological target: T1, YiiP; details: Kd1 145 μM vs Kd2 0.24 μM
Excerpt: Anomalous difference Fourier maps of native crystals were computed using experimental phases and diffraction data collected at the zinc edge.

YiiP [3] = biological target: T1, YiiP; details: cited from earlier work; remark: listed apart in the source

T1 sequence (P69380 whole entry): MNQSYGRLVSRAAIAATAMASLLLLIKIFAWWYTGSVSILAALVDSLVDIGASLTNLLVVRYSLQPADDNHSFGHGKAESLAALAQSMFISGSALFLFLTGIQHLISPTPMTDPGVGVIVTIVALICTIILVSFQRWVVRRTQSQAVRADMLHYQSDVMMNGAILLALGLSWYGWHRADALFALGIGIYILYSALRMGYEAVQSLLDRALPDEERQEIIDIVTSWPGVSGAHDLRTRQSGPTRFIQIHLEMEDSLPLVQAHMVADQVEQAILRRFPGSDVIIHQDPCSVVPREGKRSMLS

SMILES | binding affinities, metal binding mapped to D49 and D157 in the transmembrane domain (YiiP [1]) | affinity difference between site-Z1 and Z2 (YiiP [2]) | turnover rate of Zn2+ transport across the membrane (YiiP [3]; 30-ms timescale) | Km (YiiP [3]; read-out: Michaelis-Menten constant (Km) of Zn2+ transport by YiiP) | Zn2+ stoichiometry units per YiiP protomer (YiiP [1]; EDTA pre-treated YiiP) | pKd (YiiP [1]; read-out: dissociation constant (Kd, Kd1), low affinity component / site-Z2, low-affinity binding component, intracellular-facing site-Z2) | pKd (YiiP [1]; read-out: dissociation constant (Kd, Kd2), high affinity sites / site-Z1, two high affinity Zn2+-binding sites, overall Kd, attributed to site-Z1)
[Cd+2] [Cd^2+] | submicromolar range |  |  |  |  |  | 
[Zn+2] [Zn^2+] | submicromolar range | 604 fold | 34 s^− | 310 µM | 2.6 | 3.84 | 6.62

Reference: US20090171592A1, “Homology Models of Mammalian Zinc Transporters and Methods of Using Same” (Brookhaven Science Associates, LLC, priority 2007, published 2009)
